According to paper PMC8409943, “Study on mechanism of low bioavailability of black tea theaflavins by using Caco-2 cell monolayer” (Drug Delivery, 2021):
Where two headings read alike, the source gives them in different places.

Assays:
[1] = Stability (recovery rate) of theaflavins in HBSS and DMEM in the absence of cells; details: 2 h
Method: Standard stock solutions of each theaflavin were diluted with HBSS and DMEM respectively, obtaining final test solutions of 200 μM. The recovery rate of theaflavins in HBSS and in DMEM, in the absence of cells, was analyzed by HPLC after incubation at 37 °C for 0.5, 1, 2, 3, 4, 8, 12, and 24 hours, respectively. The recovery rate was used to measure the stability and calculated as follows: (2) Recovery rate=Ct/C0× 100% where Ct is the final concentration at different incubation time (μM); C0, the initial concentration (μM).
Theaflavins were characterized by high performance liquid chromatography (HPLC, Agilent 1100VL, Agilent Technologies Inc., CA, USA). Briefly, samples were extracted with 70% methanol, centrifuged at 685 × g for 10 min, and filtered through a 0.45 μm membrane (Nylon 66). The separation was performed by an ODS reversed-phase column (4.6 mm i.d.×250 mm, SB-C18, Agilent Technologies Inc., CA, USA) at a flow rate of 0.7 mL/min. Chromatographic conditions were slightly modified according to China National Standard (GB/T 30483-2013, GAQSIQ, P. R. China, 2013). Samples were eluted with a gradient of solvent A (100 mL water with 9 mL acetonitrile and 2 mL acetic acid) and B (100 mL acetonitrile with 17.8 mL water and 2 mL acetic acid) as follows: 0–5 min, 95% A; 5–10 min, 90% A; 10–20 min, 70% A; 20–25 min, 65% A; 25–30 min, 70% A; 30–35 min, 100% A. Theaflavins were detected using an ultraviolet detector at a wavelength of 278 nm.

Caco-2 cells = test: Cytotoxicity study by CCK-8 method; type: cell-based, Human; details: 24 h
Method: Standard stock solutions (1000 μM) of each theaflavin were prepared in 0.1% dimethyl sulfoxide (DMSO) in deionized water, and diluted with fresh DMEM to 100, 200, 300, 400, and 500 µmol/L respectively. Each inhibitor was prepared as instructions. The cytotoxicity of theaflavins and four inhibitors of multidrug resistant associated proteins to Caco-2 cells was examined by CCK-8 method (Song et al., [2014]). Briefly, Caco-2 cells were inoculated onto 96-well microtiter plates at a density of 1 × 10^4 cells per well. After incubation at 37 °C for 24 h, cells were incubated for another 24 h with different concentrations of theaflavins, followed by adding 10 μL CCK-8 solution and 1 h incubation at 37 °C. The absorbance (OD) value was determined at 450 nm using a microplate reader (ELX-800, Bio-Tek Instruments Inc., Winooski, USA). Four inhibitors were used in this study: Vep, inhibitor of P-gp; CsA, inhibitor and substrate of P-gp; MK-571, inhibitor of MRP1, MRP2 and MRP3; FTC, inhibitor of BCRP (Silbermann et al., [1989]; König et al., [1999]; Renes et al., [1999]; Ali et al., [2017]). The cytotoxicity of Vep, CsA, MK-571 or FTC was also determined by CCK-8 assay. […] To determine the effects of inhibitors on the cytotoxicity of theaflavins, cells were incubated with both different theaflavin monomers (100, 200, 300, 400, and 500 μM) and different inhibitors. IC50, the half inhibitory concentration, was calculated from the cell viability. The cell viability was calculated by the following equation: (1) Cell viability (%)=(ODsample− ODblank)/(ODcontrol− ODblank)×100% where ODsample is the absorbance value of cell + sample + complete medium; ODblank, the absorbance value of complete medium; ODcontrol, the absorbance value of cell + complete medium.

Caco-2 monolayers = test: HPLC-MS/MS identification of metabolites in the absorptive transport of Caco-2 monolayers; type: in vitro ADME, Human; details: 200 µM, 2 h; for conjugated metabolites (glucuronidated, sulfated and methylated): AP side or BL side of Caco-2 monolayers; for metabolites identified: absorptive transport, AP side and BL side
Method: TF3G, TF3’G and TFDG were dissolved in DMSO (≤0.5%), and then, diluted with HBSS. Caco-2 cells were incubated with 200 µM TF3G, TF3’G and TFDG at 37 °C for 2 h. Samples collected from both AP side and BL side were measured by HPLC with MS detection, and the metabolites were determined in terms of the standard TF, TF3G, TF3’G, TFDG, and gallic acid (Table S2).

MRP1 = test: Western blot, protein level of MRP1; type: cell-based, Human; details: Caco-2 cells, 200 μM, 2 h, normalized to β-actin, vs control
Method: (§1) Cell lysates were prepared with RIPA lysis buffer. […] Cell protein (50 μg) was loaded onto SDS polyacrylamide gel (5% stacking gel; 8% separating gel) and separated by electrophoresis for 1.5 h at 20 mA. Next, the separated proteins were transferred onto the PVDF membrane in ice bath for 1.5 h at 120 mA, followed by blocking the membrane with 5% nonfat milk in Tris-buffered saline containing 0.1% Tween-20 (TBST) for 1 h at room temperature. After blocking, the blots were incubated overnight at 4 °C with the primary antibody of P-gp, MRP1, MRP2, MRP3, BCRP (1:200) or β-actin (1:40,000), followed by washing with TBST and incubation for 1 h at room temperature with HRP-conjugated goat anti-rabbit (1:3,000). Immunoreactive proteins were visualized by the ECL detection system, band intensity was quantified by Image Lab (Bio-Rad, CA, USA), and the protein contents were normalized to β-actin.

BCRP = test: Western blot, protein level of BCRP; type: cell-based, Human; details: Caco-2 cells, 200 μM, 2 h, normalized to β-actin, vs control
Method: as §1

[2] = Transepithelial transport of theaflavins across Caco-2 cell monolayers, with or without efflux transporter inhibitors; type: in vitro ADME, Human; details: human; for recovery at 2 h, 200 μM: Caco-2, Caco-2 monolayers, after 2 h incubation; for efflux ratio at 2 h, 200 μM / Papp A→B at 2 h, 200 μM / Papp B→A at 2 h, 200 μM: 2 h incubation
Method: (§2) For transport studies, Caco-2 cells were seeded at a density of 3 × 10^5 cells per well in Transwell® inserts (polycarbonate membrane, 24 mm i.d., 0.4 μm pore size, Corning Costar Corp., NY, USA) in 6-well plates (Zhang et al., [2004]). […] The inserts were washed twice with HBSS buffer and equilibrated at 37 °C for 30 min. Standard stock solutions of each theaflavin were diluted to 200 μM with HBSS. For absorptive transport, theaflavins in 1.5 mL HBSS was added into the AP side and 2.6 mL HBSS was added into the BL side of all inserts. For secretory transport, 1.5 mL HBSS and 2.6 mL theaflavins in HBSS were added into AP side and BL side, respectively. Samples were collected from the receiving chamber after 0.5, 1, 2, 3, or 4 h incubation and then were lyophilized at −110 °C in a CoolSafe freeze dryer (LaboGene ApS, Bjarkesvej, Denmark) for HPLC analysis. The recovery rate of theaflavins in the transport was calculated from the above Equation (2).
(§3) Prior to transport inhibition experiment, cells were preincubated for 30 min with 100 μM Vep, 100 μM CsA, 100 μM MK-571, or 10 μM FTC in both sides (Vaidyanathan & Walle, [2001]; Wang et al., [2008]). Then, the absorptive and secretory experiments were performed in the presence of inhibitors as described above. Samples were collected from the receiving chamber after 2 h incubation and then were lyophilized at −110 °C for HPLC analysis.
(§4) The apparent permeability coefficient (Papp, cm/s) was calculated as follows: (3) Papp= dQ/dt×V/(A×C0) where dQ/dt is the variation in concentration on the receiving side over time (μM/s); V, the volume of the solution collected from the receiving chamber (cm^3); A, the area of the membrane (4.67 cm^2); C0, the initial concentration of theaflavins in the donor chamber (μM).
(§5) The efflux ratio was calculated as follows: (4) Efflux ratio= Papp(BL−AP)/Papp(AP−BL) where Papp, apparent permeability coefficient; AP-BL, apical to basolateral transport; BL-AP, basolateral to apical transport.

Caco-2 cell monolayers = test: as above; type: in vitro ADME, Human; details: for fold increase in the influx: absorptive transport, with verapamil vs control, 2 h
Method: as §2, §3, §4, §5

[3] = Homo sapiens, Ctrl (no inhibitor)
[4] = apical to basolateral, read-out: recovery of theaflavins in absorptive transport
[5] = basolateral to apical, read-out: recovery of theaflavins in secretory transport
[6] = Caco-2, Papp(BL−AP)/Papp(AP−BL), Ctrl (no inhibitor)
[7] = Caco-2, absorptive transport, 200 μM theaflavin in HBSS, Ctrl (no inhibitor)
[8] = Caco-2, secretory transport, 200 μM theaflavin in HBSS, Ctrl (no inhibitor)
[9] = Caco-2, with 10 μM FTC (BCRP inhibitor), + 10 μM FTC (BCRP inhibitor)
[10] = Caco-2, with 10 μM FTC (BCRP inhibitor), absorptive transport, + 10 μM FTC (BCRP inhibitor)
[11] = Caco-2, with 10 μM FTC (BCRP inhibitor), secretory transport, + 10 μM FTC (BCRP inhibitor)
[12] = Caco-2, with 100 μM CsA (P-gp inhibitor and substrate), + 100 μM CsA (P-gp inhibitor and substrate)
[13] = Caco-2, with 100 μM CsA (P-gp inhibitor and substrate), absorptive transport, + 100 μM CsA (P-gp inhibitor and substrate)
[14] = Caco-2, with 100 μM CsA (P-gp inhibitor and substrate), secretory transport, + 100 μM CsA (P-gp inhibitor and substrate)
[15] = Caco-2, with 100 μM Vep (P-gp inhibitor), + 100 μM Vep (P-gp inhibitor)
[16] = Caco-2, with 100 μM Vep (P-gp inhibitor), absorptive transport, + 100 μM Vep (P-gp inhibitor)
[17] = Caco-2, with 100 μM Vep (P-gp inhibitor), secretory transport, + 100 μM Vep (P-gp inhibitor)

conjugated metabolites (glucuronidated, sulfated and methylated) (Caco-2 monolayers)	metabolites identified (Caco-2 monolayers)	recovery at 2 h, 200 μM [2, 4] [%]	recovery at 2 h, 200 μM [2, 5] [%]	efflux ratio at 2 h, 200 μM [2, 6]	Papp A→B at 2 h, 200 μM [2, 7] [nm/s]	Papp B→A at 2 h, 200 μM [2, 8] [nm/s]	efflux ratio at 2 h, 200 μM [2, 9]	Papp A→B at 2 h, 200 μM [2, 10] [nm/s]	Papp B→A at 2 h, 200 μM [2, 11] [nm/s]	efflux ratio at 2 h, 200 μM [2, 12]	Papp A→B at 2 h, 200 μM [2, 13] [nm/s]	Papp B→A at 2 h, 200 μM [2, 14] [nm/s]	SMILES	IC50 (Caco-2 cells; + CsA) [µM]	IC50 (Caco-2 cells; + FTC) [µM]	IC50 (Caco-2 cells; + MK-571) [µM]	IC50 (Caco-2 cells; + VEP) [µM]	IC50 (Caco-2 cells; [3]) [µM]	increase of protein level of MRP1 (MRP1)	increase of protein level of BCRP (BCRP)	also measured
not detected	GA and TF	44.2	47.6	1.58 ± 0.3	1.07 ± 0.04	1.68 ± 0.3	1.41 ± 0.27	1.09 ± 0.04	1.53 ± 0.27	1.13 ± 0.22	1.3 ± 0.05	1.46 ± 0.26	O=C(O[C@@H]1Cc2c(O)cc(O)cc2O[C@@H]1c1cc(O)c(=O)c2c(O)c(O)cc([C@H]3Oc4cc(O)cc(O)c4C[C@H]3O)c2c1)c1cc(O)c(O)c(O)c1 [TF3G, theaflavin-3-gallate]	446 ± 30.1	508 ± 15.9	585 ± 78.7	454 ± 13.2	641 ± 7.8	58.36%	115.78%	degraded due to the structural instability [1]: 24.6%; efflux ratio at 2 h, 200 μM [2, 15]: 0.86 ± 0.16; Papp A→B at 2 h, 200 μM [2, 16]: 2.03 ± 0.08 nm/s; Papp B→A at 2 h, 200 μM [2, 17]: 1.73 ± 0.31 nm/s; fold increase in the influx (Caco-2 cell monolayers): 1.90 fold; transport amount, absorptive transport (peak) (Caco-2 cell monolayers; apical to basolateral, 200 μM, at 3 h): 1.30 ± 0.08 nmol; transport amount, secretory transport (peak) (Caco-2 cell monolayers; basolateral to apical, 200 μM, at 3 h): 3.59 ± 0.36 nmol
not detected	GA (peak M3, Figure 5(G,H)) and TF	31.8	31.6	1.62 ± 0.15	0.44 ± 0.03	0.72 ± 0.03	1.26 ± 0.11	0.54 ± 0.03	0.67 ± 0.02	1.55 ± 0.14	0.54 ± 0.03	0.84 ± 0.03	O=C(O[C@@H]1Cc2c(O)cc(O)cc2O[C@@H]1c1cc(O)c(O)c2c(=O)c(O)cc([C@H]3Oc4cc(O)cc(O)c4C[C@H]3O)cc12)c1cc(O)c(O)c(O)c1 [TF3’G, theaflavin-3’-gallate]	575 ± 84.3	432 ± 30.7	424 ± 35	467 ± 53.3	521 ± 31.9	increased	increased	degraded due to the structural instability [1]: 22.1%; efflux ratio at 2 h, 200 μM [2, 15]: 1.08 ± 0.1; Papp A→B at 2 h, 200 μM [2, 16]: 0.55 ± 0.03 nm/s; Papp B→A at 2 h, 200 μM [2, 17]: 0.59 ± 0.02 nm/s; fold increase in the influx (Caco-2 cell monolayers): 1.24 fold
not detected	GA, TF, TF3G, and TF3’G	32.7	24.7	1.57 ± 0.08	3.64 ± 0.34	5.69 ± 0.49	1.47 ± 0.08	3.75 ± 0.35	5.52 ± 0.48	1.58 ± 0.09	4 ± 0.37	6.32 ± 0.55	O=C(O[C@@H]1Cc2c(O)cc(O)cc2O[C@@H]1c1cc(O)c(=O)c2c(O)c(O)cc([C@H]3Oc4cc(O)cc(O)c4C[C@H]3OC(=O)c3cc(O)c(O)c(O)c3)c2c1)c1cc(O)c(O)c(O)c1 [TFDG, theaflavin-3, 3’-digallate]	702 ± 69.4	580 ± 83.9	373 ± 38.8	509 ± 40.6	580 ± 34.7	increased	increased	efflux ratio at 2 h, 200 μM ([2]; Caco-2, with 100 μM MK-571 (MRP1, MRP2, MRP3 inhibitor), + 100 μM MK-571 (MRP1, MRP2, MRP3 inhibitor)): 1.35 ± 0.07; Papp A→B at 2 h, 200 μM ([2]; Caco-2, with 100 μM MK-571 (MRP1, MRP2, MRP3 inhibitor), absorptive transport, + 100 μM MK-571 (MRP1, MRP2, MRP3 inhibitor)): 3.89 ± 0.36 nm/s; Papp B→A at 2 h, 200 μM ([2]; Caco-2, with 100 μM MK-571 (MRP1, MRP2, MRP3 inhibitor), secretory transport, + 100 μM MK-571 (MRP1, MRP2, MRP3 inhibitor)): 5.24 ± 0.46 nm/s; efflux ratio at 2 h, 200 μM [2, 15]: 1.53 ± 0.08; Papp A→B at 2 h, 200 μM [2, 16]: 3.57 ± 0.33 nm/s; Papp B→A at 2 h, 200 μM [2, 17]: 5.46 ± 0.47 nm/s; transport amount, absorption peak (Caco-2 cell monolayers; apical to basolateral, 200 μM, at 2 h): 2.44 ± 0.23 nmol; transport amount, secretion peak (Caco-2 cell monolayers; basolateral to apical, 200 μM, at 2 h): 3.83 ± 0.33 nmol
